Laboratory results as given in patent US8921376B2, “Pyrrolopyridines useful as inhibitors of protein kinase” (Vertex Pharmaceuticals Incorporated, priority 2005, dated 2014).

Key:
Assay type in all cases: biochemical
ROCK I = ROCK I (Homo sapiens, UniProt Q13464); assay: ROCK-I inhibition assay (radioactive enzyme assay, MBP substrate)
Outline: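 Human ROCK at 5 nM phosphorylated 27 μM myelin basic protein with 13 μM [γ-33P]ATP (final) in HEPES pH 7.5, MgCl2, NaCl, DTT and 1.5% DMSO. Reactions ran 2 h at room temperature before TCA quench and filter-plate scintillation counting. After background subtraction, data were fit to give Ki(app).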

JAK2 = JAK2 (Homo sapiens, UniProt O60674); assay: JAK2 inhibition assay (as Example 3 with JAK-2 enzyme)
Chain of JAK2 (O60674 whole entry): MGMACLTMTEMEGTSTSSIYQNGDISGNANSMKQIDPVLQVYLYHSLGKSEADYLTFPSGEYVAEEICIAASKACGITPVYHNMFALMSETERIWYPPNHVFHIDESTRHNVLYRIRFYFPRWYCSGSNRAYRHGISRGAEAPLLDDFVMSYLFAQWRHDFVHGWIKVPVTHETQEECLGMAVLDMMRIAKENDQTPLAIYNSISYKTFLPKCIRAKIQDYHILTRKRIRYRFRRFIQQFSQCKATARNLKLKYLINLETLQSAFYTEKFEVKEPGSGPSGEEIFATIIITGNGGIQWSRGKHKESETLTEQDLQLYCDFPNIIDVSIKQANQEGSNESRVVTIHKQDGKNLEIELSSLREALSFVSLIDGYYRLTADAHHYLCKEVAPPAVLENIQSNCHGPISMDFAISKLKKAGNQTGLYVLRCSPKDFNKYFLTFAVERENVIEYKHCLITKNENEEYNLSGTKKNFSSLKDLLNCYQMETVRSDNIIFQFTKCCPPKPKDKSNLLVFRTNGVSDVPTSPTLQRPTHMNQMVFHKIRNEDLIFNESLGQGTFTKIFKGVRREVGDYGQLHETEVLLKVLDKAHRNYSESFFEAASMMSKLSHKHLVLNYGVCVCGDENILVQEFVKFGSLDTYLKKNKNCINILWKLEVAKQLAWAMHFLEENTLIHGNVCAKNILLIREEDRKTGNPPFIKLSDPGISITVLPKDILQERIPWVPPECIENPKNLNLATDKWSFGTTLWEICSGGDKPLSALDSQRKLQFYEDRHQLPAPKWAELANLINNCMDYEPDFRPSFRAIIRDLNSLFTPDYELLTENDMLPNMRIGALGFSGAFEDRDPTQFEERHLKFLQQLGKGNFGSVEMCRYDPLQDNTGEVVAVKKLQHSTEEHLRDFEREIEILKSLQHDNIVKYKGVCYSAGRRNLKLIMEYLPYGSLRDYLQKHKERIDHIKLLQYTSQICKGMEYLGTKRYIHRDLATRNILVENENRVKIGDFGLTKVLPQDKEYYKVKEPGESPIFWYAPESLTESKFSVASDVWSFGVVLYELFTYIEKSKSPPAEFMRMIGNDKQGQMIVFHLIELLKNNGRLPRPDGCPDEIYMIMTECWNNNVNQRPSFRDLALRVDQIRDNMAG
Outline: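 In HEPES pH 7.4 buffer with 10 mM MgCl2, 1 mM DTT, 25 mM NaCl and 0.01% BSA, JAK2 enzyme phosphorylated poly(Glu)4Tyr (final 15 μM) using 33P-ATP (final 12 μM) for 20 min at room temperature (25 °C). Reactions stopped with TCA; incorporated 33P measured by scintillation after filtration.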

JAK3 = target: T1, JAK3 (Homo sapiens, UniProt P52333); assay: JAK3 inhibition assay (33P incorporation into poly(Glu)4Tyr)
T1 sequence (P52333 1-1124): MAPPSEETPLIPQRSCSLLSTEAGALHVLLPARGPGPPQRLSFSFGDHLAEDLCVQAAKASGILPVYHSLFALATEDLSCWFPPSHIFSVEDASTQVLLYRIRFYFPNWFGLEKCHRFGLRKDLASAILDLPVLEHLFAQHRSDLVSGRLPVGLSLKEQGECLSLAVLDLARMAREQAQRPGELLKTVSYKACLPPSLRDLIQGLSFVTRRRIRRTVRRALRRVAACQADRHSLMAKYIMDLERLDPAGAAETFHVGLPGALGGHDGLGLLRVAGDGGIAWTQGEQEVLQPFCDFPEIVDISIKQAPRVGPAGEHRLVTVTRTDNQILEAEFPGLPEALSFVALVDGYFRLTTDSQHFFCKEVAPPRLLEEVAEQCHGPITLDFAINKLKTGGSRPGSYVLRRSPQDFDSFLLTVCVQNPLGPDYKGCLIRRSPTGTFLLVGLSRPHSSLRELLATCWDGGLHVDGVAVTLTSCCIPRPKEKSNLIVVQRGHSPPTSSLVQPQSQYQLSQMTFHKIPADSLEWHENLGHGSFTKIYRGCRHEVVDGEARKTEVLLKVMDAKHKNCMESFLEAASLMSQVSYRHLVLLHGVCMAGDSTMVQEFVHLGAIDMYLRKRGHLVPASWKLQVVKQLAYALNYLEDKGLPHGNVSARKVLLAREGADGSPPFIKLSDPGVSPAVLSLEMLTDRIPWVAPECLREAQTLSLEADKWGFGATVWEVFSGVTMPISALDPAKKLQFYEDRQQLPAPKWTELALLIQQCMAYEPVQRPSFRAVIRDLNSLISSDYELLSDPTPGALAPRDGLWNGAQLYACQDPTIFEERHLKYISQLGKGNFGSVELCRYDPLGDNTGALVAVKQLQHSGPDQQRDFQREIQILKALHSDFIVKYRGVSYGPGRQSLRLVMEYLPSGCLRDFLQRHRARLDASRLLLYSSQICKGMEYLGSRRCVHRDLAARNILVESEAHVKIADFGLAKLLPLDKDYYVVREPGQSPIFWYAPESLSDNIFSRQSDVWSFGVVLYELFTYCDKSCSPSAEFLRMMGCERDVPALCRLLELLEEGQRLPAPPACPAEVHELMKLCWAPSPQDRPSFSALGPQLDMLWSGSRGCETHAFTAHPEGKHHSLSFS
Outline: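 After TCA quench and filter harvest, scintillation counting of 33P measured phosphorylation of poly(Glu)4Tyr (1 μM) by 1 nM JAK3. The 20-min, 25° C. reaction contained 5 μM ATP (200 μCi/μmole) in pH 7.4 HEPES buffer with 10 mM MgCl2.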

[1] = enzyme inhibition, Ki(app), Table 5
[2] = Table 6, enzyme inhibition data (Ki)

Chain of ROCK I (Q13464 whole entry): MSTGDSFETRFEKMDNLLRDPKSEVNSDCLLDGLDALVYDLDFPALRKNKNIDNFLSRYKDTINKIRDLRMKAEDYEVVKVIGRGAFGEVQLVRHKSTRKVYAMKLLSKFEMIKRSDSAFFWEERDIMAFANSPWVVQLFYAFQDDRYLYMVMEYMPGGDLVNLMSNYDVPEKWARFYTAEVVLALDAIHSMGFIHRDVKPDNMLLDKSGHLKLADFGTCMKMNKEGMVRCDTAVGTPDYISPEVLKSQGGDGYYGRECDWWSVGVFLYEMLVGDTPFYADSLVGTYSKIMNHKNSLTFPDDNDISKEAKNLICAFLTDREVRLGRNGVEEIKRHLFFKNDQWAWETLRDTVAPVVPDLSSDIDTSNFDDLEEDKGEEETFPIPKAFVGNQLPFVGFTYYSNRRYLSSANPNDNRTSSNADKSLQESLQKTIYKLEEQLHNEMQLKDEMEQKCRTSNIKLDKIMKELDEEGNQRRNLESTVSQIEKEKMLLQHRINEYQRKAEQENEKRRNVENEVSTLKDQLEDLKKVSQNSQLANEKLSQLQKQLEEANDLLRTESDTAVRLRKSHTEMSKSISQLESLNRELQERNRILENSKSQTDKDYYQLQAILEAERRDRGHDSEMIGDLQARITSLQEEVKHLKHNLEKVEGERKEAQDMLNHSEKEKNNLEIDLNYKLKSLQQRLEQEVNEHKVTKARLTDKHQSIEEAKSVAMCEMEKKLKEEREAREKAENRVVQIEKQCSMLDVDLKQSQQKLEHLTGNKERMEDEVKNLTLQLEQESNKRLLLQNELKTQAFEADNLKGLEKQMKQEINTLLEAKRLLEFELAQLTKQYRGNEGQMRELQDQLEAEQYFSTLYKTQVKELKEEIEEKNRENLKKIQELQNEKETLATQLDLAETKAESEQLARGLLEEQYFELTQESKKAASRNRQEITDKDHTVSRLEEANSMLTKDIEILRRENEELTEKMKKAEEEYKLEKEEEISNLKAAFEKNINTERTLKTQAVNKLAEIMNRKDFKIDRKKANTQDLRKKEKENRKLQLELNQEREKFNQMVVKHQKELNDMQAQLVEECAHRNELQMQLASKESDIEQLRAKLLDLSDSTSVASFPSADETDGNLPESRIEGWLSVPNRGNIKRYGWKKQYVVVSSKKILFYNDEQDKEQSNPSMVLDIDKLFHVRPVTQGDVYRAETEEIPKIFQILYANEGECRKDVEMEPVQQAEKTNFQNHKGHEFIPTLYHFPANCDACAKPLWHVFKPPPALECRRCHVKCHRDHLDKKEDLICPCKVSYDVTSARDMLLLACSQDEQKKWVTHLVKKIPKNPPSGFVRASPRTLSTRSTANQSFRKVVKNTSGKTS

| Ki (ROCK I; [1]) [nM] | Ki (JAK2; enzyme inhibition, Table 5) [nM] | Ki (JAK3; enzyme inhibition, Table 5) [nM] | Ki (ROCK I; [2]) [nM] | Ki (JAK2; [2]) [nM] | Ki (JAK3; [2]) [nM] | SMILES |
| --- | --- | --- | --- | --- | --- | --- |
| < 500 | < 500 | < 500 | – | – | – | Clc1cnc2[nH]ccc2c1NC1CCCC1 [compound 127, 5-chloro-N-cyclopentyl-1H-pyrrolo[2,3-b]pyridin-4-amine] |
| 500 to 5000 | > 5000 | > 5000 | – | – | – | CC(=O)Nc1ccccc1-c1c(Cl)cnc2[nH]ccc12 [compound 128] |
| 500 to 5000 | > 5000 | > 5000 | – | – | – | Nc1ccccc1-c1c(Cl)cnc2[nH]ccc12 [compound 129] |
| 500 to 5000 | 500 to 5000 | 500 to 5000 | – | – | – | C[C@H](Nc1ccnc(-c2ccnc3[nH]ccc23)n1)C(=O)NC1CC1 [compound 130] |
| 500 to 5000 | 500 to 5000 | < 500 | – | – | – | CC(C)(Nc1nc(-c2ccnc3[nH]ccc23)ncc1F)C(=O)NCC(F)(F)F [compound 131] |
| 500 to 5000 | > 5000 | 500 to 5000 | – | – | – | CC(C)(Nc1nc(-c2ccnc3[nH]ccc23)nc2ccccc12)C(=O)NCC(F)(F)F [compound 132] |
| < 500 | < 500 | 500 to 5000 | – | – | – | c1cc(-c2ccoc2)c2cc[nH]c2n1 [compound 133, 4-Furan-3-yl-1H-pyrrolo[2,3-b]pyridine] |
| 500 to 5000 | > 5000 | 500 to 5000 | – | – | – | C[C@H](Nc1nc(-c2ccnc3[nH]ccc23)nc2ccccc12)C(=O)NCC(F)(F)F [compound 134] |
| – | – | – | < 500 | < 500 | < 500 | Clc1cnc2[nH]ccc2c1-c1cccs1 [compound 135] |
| – | – | – | < 500 | < 500 | < 500 | Clc1cnc2[nH]ccc2c1-c1ccco1 [compound 136] |
| – | – | – | > 4000 | < 500 | < 500 | Clc1cnc2[nH]ccc2c1-c1cc2ccccc2s1 [compound 137] |
| – | – | – | > 4000 | < 500 | < 500 | Clc1cnc2[nH]ccc2c1-c1cc2ccccc2o1 [compound 138] |
| – | – | – | 500 to 5000 | < 500 | < 500 | Clc1cnc2[nH]ccc2c1-c1ccoc1 [compound 139] |
| – | – | – | 500 to 5000 | < 500 | < 500 | Cc1ccc(-c2c(Cl)cnc3[nH]ccc23)s1 [compound 140] |
| – | – | – | > 4000 | < 500 | < 500 | Clc1ccc(-c2c(Cl)cnc3[nH]ccc23)s1 [compound 141] |
| – | – | – | 500 to 5000 | < 500 | < 500 | Clc1cnc2[nH]ccc2c1-c1csc2ccccc12 [compound 142] |
| – | – | – | > 4000 | 500 to 5000 | > 5000 | CC(C)(C)OC(=O)n1cccc1-c1c(Cl)cnc2[nH]ccc12 [compound 143] |
| – | – | – | 500 to 5000 | < 500 | < 500 | Cc1csc(-c2c(Cl)cnc3[nH]ccc23)c1 [compound 144] |
| – | – | – | > 4000 | < 500 | < 500 | CC(=O)c1ccc(-c2c(Cl)cnc3[nH]ccc23)s1 [compound 145] |
| – | – | – | > 4000 | > 5000 | > 5000 | Cc1noc(C)c1-c1c(Cl)cnc2[nH]ccc12 [compound 146] |
| – | – | – | > 4000 | > 5000 | > 5000 | CC(C)(C)OC(=O)n1c(-c2c(Cl)cnc3[nH]ccc23)cc2ccccc21 [compound 147] |
| – | – | – | > 4000 | 500 to 5000 | 500 to 5000 | O=S(=O)(c1ccccc1)n1cc(-c2c(Cl)cnc3[nH]ccc23)c2ccccc21 [compound 148] |
| – | – | – | < 500 | < 500 | < 500 | Clc1cnc2[nH]ccc2c1NC1CCCCCC1 [compound 149] |
| – | – | – | < 500 | < 500 | < 500 | Clc1cnc2[nH]ccc2c1N[C@@H]1C[C@H]2CC[C@@H]1C2 [compound 150] |
| – | – | – | > 4000 | 500 to 5000 | 500 to 5000 | CC(C)[C@@H]1CC[C@@H](C)C[C@H]1Nc1c(Cl)cnc2[nH]ccc12 [compound 151] |
